Source: patent EP4480943A1, “NEW CLASS OF LIPIDS FOR DELIVERING ACTIVE INGREDIENTS INTO CELLS” (Oz Biosciences, priority 2023, dated 2024)

What was measured:
ovalbumin (OVA) antigen = assay: In vivo immunization with OVA mRNA LNPs, ELISA and Elispot; conditions: C57BL6J mice, s.c. prime boost (D0-14), 10µg mRNA
Text: In this context, the emergence of vaccine-based LNPs represents a clear opportunity to reach pathologies impossible to fight with more classical vaccine approach. The tunable lipid presented in this document could envisioned as potent pillar for future nucleic acid-based vaccine, due to their ground-breaking features in term of efficiency and safe character. Thus, LNPs based on tunable lipids I and XIV have been formulated to encapsulate unmodified mRNA coding for the ovalbumin (OVA) antigen (OZ Biosciences, Cat: MRNA42-1000) and their physico-chemical properties determined (Table 4). Table 4: Main physical properties of mRNA(OVA) LNPs based on tunable lipids I and XIV.
C57BL6J mice received a prime boost (D0-14) immunizations of OVA antigen delivered by mRNA-based LNPs or by recombinant protein (alone or adjuvanted with aluminium-based adjuvant). To characterize the immuno-phenotyping of the mice, the sera and splenocytes were collected at different time (D0, D14, D21, D28) and analysed by ELISA and Elispot. The mice were immunized by s.c (sub-cutaneous) route with 100µL per injection at 10µg OVA subunit and 10µg mRNA doses. Results are depicted in figures 51 and 52, mRNA-OVA LNP formulations are efficient at priming a strong humoral response upon sub-cutaneous prime boost injection (D0-14). Indeed, a strong antibody response was measured after prime boost immunization. […]

[1] = Encapsulation efficiency / loaded nucleic acid by SyBr Gold fluorescence after Triton X-100 disruption; format: physicochemical; conditions: N/P 6
Protocol: (§1) The size and charge of the collected LNPs are determined using DLS (Malvern Instruments NanoZS) by dissolving 50 µL of the collected solution in 950 µL of MilliQ water. Then, formed LNPs are destabilized by adding 1% v/v of Triton X-100 and incubate at 30°C for 1h and vortexing. After disruption of the formulation, a 1/100 solution of SyBr™Gold in water is prepared, and 0.5µL of it added to 49.5µL of the resulting mixture that includes Triton X-100. The SyBr™Gold is also added the same way to 49.5µL of a solution that contains non-disrupted LNPs, and to 49.5µL of the mRNA mother solution. Fluorescence of each sample is then read after 30 min incubation at RT using a Victor (Perkin Elmer) fluorimeter (excitation: 495nm; emission: 537nm ;). The encapsulation efficiency (ee(%)) is easily obtained from these fluorescence measurements using the formula below: ee (%) = ((Fluo_LNP1v%triton−Fluo_LNP))/(Fluo_RNAstock solution) × 100 [formula]

[2] = Size and charge of LNPs by DLS (Malvern NanoZS); format: physicochemical; conditions: N/P 6
Protocol: Thin layer chromatographies (TLC) are carried out on aluminium plates covered with silica gel 60 Fasa (Merck). […] The synthesized products are purified on chromatography columns on silica. The flash chromatography separations are carried out on silica gel 60 (230-400 mesh ASTM) (Merck). Particle size and zeta potential measurements: The mean hydrodynamic particle size and charge measurements were performed using Dynamic Light Scattering (DLS) and Laser Doppler Velocimetry (LDV), respectively, using Malvern Nano ZS instrument and DTS software (Malvern Instruments, UK) in a water of Grade 2. Various amounts of cationic poloxamers were diluted in 100 µl of water and mixed with an equal volume of the same water containing DNA. The measurements were carried out in automatic mode and the results are presented as mean +/- SEM, n= 3. Each mean represents the average value of 30 measurements.
as §1

F-Luc mRNA expression = assay: In vivo transfection of F-Luc mRNA using LNPs, bioluminescence (IVIS imaging); conditions: nude mice, i.p., 10 µg mRNA
Text: Lipids I, VI and XIV have been formulated into LNPs following the molar composition depicted before (Table 1). 5-methoxyuridine-modified mRNA encoding for Firefly Luciferase (OZ Biosciences, Cat: MRNA16-1000) has been entrapped into the LNP. […] Table 3: Main physical properties of mRNA(F-Luc) LNPs based on tunable lipids I, VI, XIV, and cationic lipid DOTAP
Overall, all LNPs formulations display consistent physico-chemical properties, controlled and reproducible size, charge, polydispersity and encapsulation rate to be used in small animals. A dose equivalent to 10 µg of mRNA has been injected i.p. (intra-peritoneally) in nude mice using three different LNPs. Tunable lipids I and XIV and DOTAP-based LNPs have been selected. Bioluminescence has been monitored over time using IVIS imaging system. […] Indeed 3h post injection, luminescence could be observed in all animals at different proportions (Figure 50). Specifically, F-Luc mRNA expression was higher in mice that received LNPs based on tunable lipids, whereas expression was much lower when DOTAP is used.

firefly luciferase = assay: Biodistribution study of Luciferase mRNA LNPs, RT-PCR of organs; format: in vivo; conditions: nude mice, i.p., 10µg RNA dose, RT-PCR 6 hours after injection
Protocol: Biodistribution study involving tunable lipids-based LNPs (lipids I, VI, and XIV) has also been conducted in nude mice that were injected i.p. with Luciferase mRNA formulated into 3 different LNPs formulations at 10µg RNA dose to evaluate the nucleic acid delivery into various organs. The liver, lung, kidney and spleen were collected and analysed through RT-PCR 6 hours after injection. As observed previously, tunable lipids-based LNPs are appropriately efficient to allow the observation and quantitation of Luciferase protein in quantity 6 hours after i.p. injection.

[3] = NTsiRNA-Cy5 LNPs, DiO Label N, total lipid 4.74 mM
[4] = NTsiRNA-Cy5 LNPs, DiO Label Y, total lipid 4.74 mM
[5] = mRNA(F-Luc) LNPs, total lipid 5 mM
[6] = mRNA(GFP) LNPs, total lipid 3.75 mM
[7] = mRNA(OVA) LNPs, total lipid 5 mM

CCCCC/C=C\C/C=C\CCCCCCCCNC(=O)CCC(NC(=O)CCCN(C)C)C(=O)NCCCCCCCC/C=C\C/C=C\CCCCC (stereo not shown) [XIV]
immune response (initial response of IgG2c) (ovalbumin (OVA) antigen): efficient in generating an immune response | Encapsulation Efficiency [1, 3]: >90% | Loaded siRNA [1, 3]: 0.125 ng/µL | Encapsulation Efficiency [1, 4]: >90% | Loaded siRNA [1, 4]: 0.125 ng/µL | Encapsulation Efficiency [1, 5]: 87.5% | Loaded RNA [1, 5]: 175 ng/µL | Encapsulation Efficiency [1, 6]: 91% | Loaded RNA [1, 6]: 91 ng/µL | Encapsulation Efficiency [1, 7]: 94% | Loaded RNA [1, 7]: 94 ng/µL | PDI [2, 3]: 0.222 | Size [2, 3]: 114 nm | Zeta [2, 3]: +27 mV | PDI [2, 4]: 0.198 | Size [2, 4]: 106 nm | Zeta [2, 4]: -2.46 mV | PDI [2, 5]: 0.13 | Size [2, 5]: 99 nm | Zeta [2, 5]: +4.85 mV | PDI [2, 6]: 0.186 | Size [2, 6]: 115 nm | PDI [2, 7]: 0.149 | Size [2, 7]: 131.7 nm | Zeta [2, 7]: -7.9 mV | time of maximum bioluminescence signal post injection (F-Luc mRNA expression): 3 h | Luciferase gene expression in kidney (firefly luciferase): most efficient between the three tested formulation | Luciferase gene expression in lung (firefly luciferase): highest rate of gene expression
